Results taken from patent publication US10087416B2, “Culturing pluripotent stem cells” (Agency for Science, Technology and Research, priority 2013, dated 2018).

Key:
Format in all cases: cell-based, human
[1] = system: 3iL hESCs; test: Signaling pathway inhibitor treatment of 3iL hESCs (pluripotency markers, colony numbers); details: treated for 10 days, compared to 3iL hESC control, FIG. 4B
Experimental: The hESC line H1 (WA-01, passage 28) was used for this study. For routine culture of hESCs in TeSR1 (Stem cell technologies), cells were cultured feeder free on matrigel (BD). Cell media was changed daily. The hESCs were subcultured with 1 mg/ml Dispase (Stem cell technologies) every 5-7 days. 3iL hESCs culture medium contains 1 μM of PD0325901 (Sigma), 2 μM of BIO (Sigma), 2 μM of Dorsomorphin (Sigma) and 10 ng/ml human LIF (Millipore) in TeSR1. 3iL media are prepared fresh and stored at 4° C. for not more than 2 weeks. For treatment with 3iL conditions, hESCs cultured in TeSR1 was treated with 3iL 48 hrs post-seeding. The cells are subsequently subcultured on mitomycin C inactivated mouse fibroblast. Cells are dissociated to single cells using TrypLE (Life Technologies). […]
For expression analysis, total RNA was extracted using the TRIzol reagent (Invitrogen) with chloroform and precipitated with isopropanol. […] RNA concentration was determined with the NanoDrop 2000 (Thermo Scientific). 500 ng of RNA was used for each reverse transcription reaction using the SuperScript II Kit (Invitrogen) to produce the cDNA for subsequent quantitative assays. Quantitative real-time PCR (qPCR) analysis was performed with the SYBR Green Master Mix (KAPA) using the ABI PRISM 7900 sequence detection system. […] Samples were multiplexed and sequenced single read 76 bp (HiSeq 2000, Illumina). […]

[2] = system: hESCs; test: Small molecule treatment of hESCs, expression of pluripotency and lineage markers (qPCR); details: for Expression level of lineage markers / Expression of NANOG and POU5F1: individual chemicals of combination 22, subcultured onto feeders, harvested after 4 days, FIG. 1F; for Gene expression levels of pluripotency markers NANOG and POU5F1: hESCs treated with individual chemicals for 4 days, FIG. 1C
Experimental: For routine culture of hESCs in TeSR1 (Stem cell technologies), cells were cultured feeder free on matrigel (BD). Cell media was changed daily. The hESCs were subcultured with 1 mg/ml Dispase (Stem cell technologies) every 5-7 days. 3iL hESCs culture medium contains 1 μM of PD0325901 (Sigma), 2 μM of BIO (Sigma), 2 μM of Dorsomorphin (Sigma) and 10 ng/ml human LIF (Millipore) in TeSR1. 3iL media are prepared fresh and stored at 4° C. for not more than 2 weeks. For treatment with 3iL conditions, hESCs cultured in TeSR1 was treated with 3iL 48 hrs post-seeding. The cells are subsequently subcultured on mitomycin C inactivated mouse fibroblast. Cells are dissociated to single cells using TrypLE (Life Technologies). 3iL medium is refreshed daily and cells are subcultured upon confluency. ROCK inhibitor Thiazovivin is added at a final concentration of 1 μM to enhance cell survival for the first few passages. 3iL hESCs used in all the experiments have been cultured for at least 10 passages for adequate conditioning to the new culture condition.
hESCs were dissociated with dispase and treatment starts 48 hrs post seeding. For single chemical and combinatorial chemical treatment, the small molecules are used at the following final concentrations: 0.5 μM A83-01 (Stemgent), 2 μM BIO (Sigma), 3 μM CHIR99021 (Stemgent), 2 μM Dorsomorphin (Sigma), 8 μM Forskolin (Stemgent), 2 μM IDE-1 (Stemgent), 0.5 μM PD153035 (Sigma), 1 μM PD173074 (Sigma), 1 μM PD0325901 (Sigma), 5 μM Pifithrin-α (Sigma) and 1 μM RepSox (Sigma). All small molecules are reconstituted in DMSO. For PI3K pathway inhibition, LY294002 (Sigma) was used at final concentration of 10 μM.

[3] = system: LIF signaling; test: LIF signaling activity in hESCs (GP130, phosphorylated STAT3, STAT3 responsive genes, NANOG)
Experimental: For expression analysis, total RNA was extracted using the TRIzol reagent (Invitrogen) with chloroform and precipitated with isopropanol. The precipitated RNA was centrifuged at 13000 rpm at 4° C. for 10 min. The RNA pellet was washed with 70% ethanol and subsequently reconstituted with DEPC-treated water (AMBION). DNA contaminants were digested with DNASE I (Ambion) at 37° C. for 30 min. The DNASE I enzyme is heat inactivated at 70° C. for 10 min. RNA concentration was determined with the NanoDrop 2000 (Thermo Scientific). 500 ng of RNA was used for each reverse transcription reaction using the SuperScript II Kit (Invitrogen) to produce the cDNA for subsequent quantitative assays. Quantitative real-time PCR (qPCR) analysis was performed with the SYBR Green Master Mix (KAPA) using the ABI PRISM 7900 sequence detection system. For RNA-Seq library preparation, the total RNA was further purified by column (Purelink RNA Mini kit, Ambion). […] Samples were multiplexed and sequenced single read 76 bp (HiSeq 2000, Illumina).
hESCs were lysed with a lysis buffer (50 mM Tris-HCl, pH 8.0, 150 mM NaCl, 10 μM ZnCl, 0.5% Nonidet P-40, 5% glycerol) supplemented with protease inhibitor cocktail (Merck). Protein concentration was measured with a Bradford assay kit (Bio-Rad). […] After washing with PBST, signals were detected using the Western Blotting Luminol Reagents (Santa Cruz).

| Compound | Expression of NANOG and POU5F1 [2] | Gene expression levels of pluripotency markers NANOG and POU5F1 [2] | also measured |
| --- | --- | --- | --- |
| CCN(CC)CCCCNc1ncc2cc(-c3cc(OC)cc(OC)c3)c(NC(=O)NC(C)(C)C)nc2n1 [PD173074] | – | – | Pluripotency markers NANOG, OCT4 and TRA-1-60 in 3iL hESCs [1]: loss of pluripotency markers |
| O=C(NOC[C@H](O)CO)c1ccc(F)c(F)c1Nc1ccc(I)cc1F [PD03] | remains in a comparable range | – | Expression level of lineage markers [2]: increase in the PAX6 transcript |
| c1cc(-c2cnn3cc(-c4ccc(OCCN5CCCCC5)cc4)cnc23)ccn1 [DOR, 6-[4-(2-Piperidin-1-ylethoxy)phenyl]-3-pyridin-4-ylpyrazolo[1,5-a]pyrimidine] | remains in a comparable range | – | – |
| LIF: leukemia inhibitory factor, human recombinant | – | – | NANOG expression levels ([3]; increasing amount of LIF under 3i treatment, 5 days, FIG. 4A): increased with the addition of LIF in a dosage dependent manner; STAT3 phosphorylation ([3]; whole cell extracts, Western blot, FIG. 3H): weakly activates |
| Cc1cccc(-c2[nH]ncc2-c2ccc3ncccc3n2)n1 [RepSOX] | – | downregulation | – |
| O=C1Nc2cc(Br)ccc2/C1=C1/Nc2ccccc2/C1=N\O [BIO, 6-bromoindirubin-3′-oxime] | downregulated | downregulation | Expression level of lineage markers [2]: stronger upregulation of T and GATA6 |
| Cc1cccc(-c2nn(C(=S)Nc3ccccc3)cc2-c2ccnc3ccccc23)n1 [A83-01] | – | downregulation | Pluripotency markers NANOG, OCT4 and TRA-1-60 in 3iL hESCs [1]: loss of pluripotency markers |
